The record followed here is patent US20210276967A1 (OSPEDALE SAN RAFFAELE S.R.L., priority 2018, published 2021).

The structures appear in SMILES notation.

Data set [1] is described as follows: Hepatocytes stability, mouse. Format: in vitro ADME. The conditions noted are these: data not shown.
Data set [2] in a line: Hepatocytes stability, human. Format: in vitro ADME. The conditions noted are these: data not shown. The protocol:
Hepatic metabolism is often a major contributor to drug clearance from the body. Pooled cryopreserved human hepatocytes (commercially available for example from Bioreclamation IVT, LiverPool 20-donor Human Hepatocytes Product. No. X008000) are thawed and re-suspended in Hepatocyte Culture Medium (HCM) complete (commercially available, as for example from Lonza, HBM Hepatocytes Basal Medium Catalog No. CC-3199+HCM SingleQuots Catalog No. CC-4182). Compounds are diluted into the cell suspension (2.5 μl/2.5 mL, 1 million cells/mL) from 3 mM stock solution in DMSO to give a 3 μM concentration (0.1% DMSO). 150 μl (×2) of this mixture are taken and transferred into a 96-deep-well plate containing an equal volume of quenching solution (100% acetonitrile plus 0.1% formic acid) for time 0 incubation. […]
Stability is determined based on analysis of the disappearance of the compound as a function of incubation time, using area ratio (analyte peak area vs internal standard peak area). The elimination constant k is calculated by plotting mean disappearance values on a semi-logarithmic scale and fitting with a best fit linear regression. […] When the half-life could not be calculated, data are reported as: <0.5 or >4 hours. Intrinsic clearance given in μl/min/million cells is calculated using the Equation: Clint=KV/N. Where K=0.693/t1/2, V=incubation volume (ml) and N=number of hepatocytes/sample.

Another data set has as its system HBV. Description: HBV inhibition in HepAD38 cells, extracellular HBV DNA by direct qPCR. The class given is cell-based, hepatitis B virus. The conditions noted are these: Hepatitis B virus.

The term inhibition denotes the relative decrease from the control value, in per cent. Usually EC50 stands for the concentration giving half of the maximal effect.

Turning to `Nc1ccc(C(=O)Nc2cc(F)c(F)c(F)c2)cc1S(N)(=O)=O` [Example E3, 4-amino-3-sulfamoyl-N-(3,4,5-trifluorophenyl)benzamide], in data set [1], the “stability in mouse hepatocytes” value is on record as “stable”. In data set [2], the “stability in human hepatocytes” value is “stable”. The inhibition at 0.5 µM with HBV (0.5 μM, HepAD38, 96 hours, read-out: HBV inhibition % (conc μM)) is above 50%.

Turning to `Cc1cc(N)c(S(N)(=O)=O)cc1C(=O)Nc1cc(F)c(F)c(F)c1` [Example E17, 4-amino-2-methyl-5-sulfamoyl-N-(3,4,5-trifluorophenyl)benzamide], the 50% effective concentration (EC50) in the data set on HBV (HepAD38, 8-point dose-response, read-out: HBV inh EC50) is below 1000 nM.
